Test results: patent publication US5580854A, “Substrate-related peptidyl-aldehyde inhibitors of the proteolytic activity of the multicatalytic proteinase complex” (Mount Sinai School of Medicine of The City University of …, priority 1994, dated 1996)
Where two headings read alike, the source gives them in different places. Peptide text beside a SMILES is read from it. * marks the point of attachment. Cbz = O=C(OCc1ccccc1)*

Key:
[1] = biological target: T1, BrAAP component of the multicatalytic proteinase complex (MPC) (Bos taurus, UniProt Q2TBP0+Q32KL2+Q3MHN0); assay: Activity of the BrAAP component of the MPC, coupled two step reaction with aminopeptidase N; Ki by Dixon plots; format: biochemical, bovine
T1 construct: The MPC was isolated from frozen bovine pituitaries; tissue PelFreeze, Inc. (Rogers, Ark.) (supplier of the tissue; the enzyme was purified in house); host or cells: bovine pituitaries
From the text: (§1) The MPC was isolated from frozen bovine pituitaries, obtained from PelFreeze, Inc. (Rogers, Ark.) essentially as described in Orlowski & Michaud, Biochemistry 28:9270-9277 (1989), incorporated herein by reference.
(§2) Cbz-Gly-Pro-Ala-Leu-Gly-pAB and Cbz-Gly-Pro-Ala-Gly-Gly-pAB, where pAB is p-aminobenzoate, were used as convenient substrates for the determination of the activity of the BrAAP and SNAAP components respectively. The BrAAP component cleaves exclusively the Leu-Gly bond in Cbz-Gly-Pro-Ala-Leu-Gly-pAB, whereas the SNAAP component cleaves the Gly-Gly bond in Cbz-Gly-Pro-Ala-Gly-Gly-pAB.
(§3) A coupled two step reaction in the presence of excess aminopeptidase N (AN) was used for the determination of the BrAAP and SNAAP activities as described previously (Orlowski et al., Biochemistry 32:1563-1572 (1993)). Aminopeptidase N was purified from hog kidneys as described by Pfleiderer, Meth. Enzymol. 19:514-521 (1970) and freed from the contaminating metalloendopeptidase (EC 3.4.24.11) as previously described (Almenoff & Orlowski, Biochemistry 22:590-599 (1983)).
(§4) Inhibition constant (K1) values for the inhibitors of the present invention towards the various proteolytic activities of the MPC were determined by the method of Dixon, Biochem. J. 55:170-171 (1953). Plots of 1/v vs [I] were made at three (3) different synthetic substrate concentrations and six (6) different inhibitor concentrations [I]. Linear regression analysis gave generally correlation coefficients better than 0.99.
(§5) Inhibition was tested with and without preincubation of the MPC with the inhibitors of the invention. No increase in inhibition was observed after preincubation of the enzyme with the inhibitor for up to 30 min, indicating absence of slow binding phenomena and a rapid equilibration between enzyme and inhibitor.
(§6) Table II provides a summary of the Ki measurements for the various peptidyl aldehydes of the invention synthesized in accordance with Examples 2 and 3.

[2] = biological target: T2, SNAAP component of the multicatalytic proteinase complex (MPC) (Bos taurus, UniProt Q2TBP0+Q32KL2+Q3MHN0); assay: Activity of the SNAAP component of the MPC, coupled two step reaction with aminopeptidase N; Ki by Dixon plots; format: biochemical, bovine; conditions: substrate Cbz-Gly-Pro-Ala-Gly-Gly-pAB (1 to 4 mill); mean of 3 to 6 experiments ± SEM
T2 construct: The MPC was isolated from frozen bovine pituitaries; tissue PelFreeze, Inc. (Rogers, Ark.) (supplier of the tissue; the enzyme was purified in house); host or cells: bovine pituitaries
From the text: as §1, §2, §3, §4, §5, §6

[3] = biological target: T3, ChT-L component of the multicatalytic proteinase complex (MPC) (Bos taurus, UniProt Q32KL2); assay: ChT-L activity of the MPC with Cbz-Gly-Gly-Leu-pNA; Ki by Dixon plots; format: biochemical, bovine; conditions: for Ki: substrate Cbz-Gly-Gly-Leu-pNA (0.1 to 0.4 MM), mean of 3 to 6 experiments ± SEM
T3 construct: The MPC was isolated from frozen bovine pituitaries; tissue PelFreeze, Inc. (Rogers, Ark.) (supplier of the tissue; the enzyme was purified in house); host or cells: bovine pituitaries
From the text: as §1
(§7) The substrates Cbz-Gly-Gly-Leu-pNA, Cbz-D-Ala-Leu-Arg-2NA and Cbz-Leu-Leu-Glu-2NA were used to determine the activities of the ChT-L, T-L and PGPH components of the MPC, respectively, as previously described by Wilk and Orlowski, J. Neurochem. 35:1172-1182 (1980) and J. Neurochem 40:842-849 (1983), where pNA is p-nitroaniline and 2NA is 2-naphthylamide.The rate of release of the chromogenic group (aromatic amine) was measured after diazotization (Goldbarg & Rutenburg, Cancer 11:283-291 (1958) Bratton & Marshall, J. Biol. Chem. 128:537-550 (1939)).
(§8) Reaction mixtures contained 0.4 to 0.8 mM substrate, Tris-HCl buffer (0.05M; pH 8.0) and enzyme (1 to 3 μg) in a final volume of 0.25 ml. Incubations were at 37° C. The reactions were stopped by addition of an equal volume of 10% trichloroacetic acid and diazotization was then carried out.
as §4, §5, §6

[4] = biological target: T4, PGPH component of the multicatalytic proteinase complex (MPC) (Bos taurus, UniProt Q3MHN0); assay: PGPH activity of the MPC with Cbz-Leu-Leu-Glu-2NA; IC50; format: biochemical, bovine
T4 construct: The MPC was isolated from frozen bovine pituitaries; tissue PelFreeze, Inc. (Rogers, Ark.) (supplier of the tissue; the enzyme was purified in house); host or cells: bovine pituitaries
From the text: as §1, §7, §8
Due to the sigmoidal relationship between reaction rate and substrate concentration for the PGPH activity, only IC50 values (inhibitor concentration giving 50% inhibition) at a substrate concentration of 0.64 mM were determined. […] Some inhibition of the ChT-L activity was also observed, although the Ki for this component was almost 20 times higher than that for the other three activities. […] Indeed, at the concentrations used, each of the inhibitors produced some activation of the T-L activity (data not shown).

[5] = biological target: T5, multicatalytic proteinase complex (MPC) (Bos taurus, UniProt Q2TBP0+Q32KL2+Q3MHN0); assay: β-casein degradation by the MPC, HPLC; format: biochemical, bovine; conditions: for inhibition at 50 µM: 50 μM inhibitor, MPC 5.0 μg
T5 construct: The MPC was isolated from frozen bovine pituitaries; tissue PelFreeze, Inc. (Rogers, Ark.) (supplier of the tissue; the enzyme was purified in house); host or cells: bovine pituitaries
Protocol: as §1
(§9) In vitro protein degrading activity of the MPC, and the effects of the various inhibitors of the present invention on such activity, was determined using β-casein and histone H3 as proteolytic substrates. For determining protein degrading activity in the presence and absence of inhibitors, incubation mixtures contained Tris-HCl buffer (0.05M, pH 8.0), β-casein or histone H3, 20 mM Mg^2+ where indicated, and inhibitor dissolved in dimethylsulfoxide, where indicated. In control samples, the inhibitor was replaced by an equal volume of dimethylsulfoxide alone.
(§10) In order to measure proteolysis by the MPC, and its inhibition by the inhibitors of the invention, aliquots of the reaction mixtures were removed after various incubation times and subjected to HPLC on a Deltapak column (C4; 5 μm; 300 A; 3.9×150 mm Waters). Elution of histone H3 was carried out with a linear gradient over 30 min. established between 30 and 50% acetonitrile (v/v) in water containing 0.1% trifluoroacetic acid (v/v) at a flow rate of 1 ml/min. Elution of β-casein was carried with a linear gradient established between 10 and 45% acetonitrile (v/v) in water containing 0.1% trifluoroacetic acid (v/v). The rate of protein degradation was determined by measuring the decrease of the peak height of the protein compared with controls in which the enzyme was omitted. Alternatively degradation of the proteins was determined by integrating the area under the peak of the protein at time zero and determining the decrease of the area after incubation with the enzyme.
FIG. 1 depicts the inhibition of β-casein degradation by Cbz-Gly-Pro-Ala-Leu-CHO. HPLC analyses were carried out on samples that had been incubated in the absence and presence of the inhibitor. Incubation mixtures contained β-casein (200 μg), 20 mM Mg^2+, MPC (30 μg) and various concentrations of, inhibitor, if used, in 2 μl of Me2 SO. […]

[6] = biological target: T5, multicatalytic proteinase complex (MPC); assay: Histone H3 degradation by the MPC, HPLC; format: biochemical, bovine; conditions: 50 μM inhibitor
Protocol: as §1, §9, §10
Histone H3 used for testing the proteolytic activity of MPC was purified from a crude histone VIII S fraction (obtained from Sigma Chemical Co. St. Louis, Mo.) by HPLC. The material was applied to a Delta Pak C4-300A semipreparative column (15 μm; 7.8 mm×300 mm) equilibrated with 30% acetonitrile (v/v) in water solution, containing 0.1% trifluoroacetic acid (v/v). Elution was carried out at a flow rate of 4 ml/min with a linear, 50 min. gradient established between 30% and 50% acetonitrile (v/v) in water, each containing 0.1% trifluoroacetic acetic acid (v/v). The main protein peak was collected and the solvent was removed under reduced pressure. The protein was dissolved in water at a concentration of 1.85 mg/ml and used for experiments. The purified histone H3 was subjected to HPLC on an analytical Deltapak column (C4; 5 μm; 300 A; 3.9×150 mm; Waters) with a linear gradient established between 30 and 50% acetonitrile (v/v) in water, containing 0.1% trifluoroacetic acid (v/v). […]

[7] = biological target: T1, BrAAP component of the multicatalytic proteinase complex (MPC); conditions: cited from earlier work
[8] = biological target: T4, PGPH component of the multicatalytic proteinase complex (MPC); conditions: cited from earlier work; for increase of the PGPH activity: low concentrations of SDS (0.02%) or fatty acids, depending on the substrate concentration
[9] = biological target: T6, BRAAP component of the MPC (Bos taurus, UniProt Q2TBP0+Q32KL2+Q3MHN0); conditions: data from Orlowski et al., Biochemistry 32:1563-1572 (1993), cited from earlier work; for Km: [S] 1.6-8.0
T6 construct: The MPC was isolated from frozen bovine pituitaries; tissue PelFreeze, Inc. (Rogers, Ark.) (supplier of the tissue; the enzyme was purified in house); host or cells: bovine pituitaries

[10] = substrate Cbz-Gly-Pro-Ala-Leu-Gly-pAB (1 to 4 mill), mean of 3 to 6 experiments ± SEM, read-out: Ki, BRAAP component
[11] = substrate Cbz-Leu-Leu-Glu-2NA (0.2 to 0.6 mill), inhibitor concentration giving 50% inhibition, read-out: IC50, PGPH component

CC(C)C[C@@H](C=O)NC(=O)[C@H](Cc1ccccc1)NC(=O)[C@@H]1CCCN1C(=O)CNC(=O)OCc1ccccc1 [Cbz-Gly-Pro-Phe-Leu-CHO] (Cbz-GPFL-aldehyde)
Ki ([1]; MPC exposed to DCI (10 μM), average of three determinations, read-out: Ki, BrAAP activity of the DCI-treated enzyme): 1.67 µM | Ki [1, 10]: 1.5 ± 0.17 µM | Ki [2]: 2.3 ± 0.24 µM | Ki for ChT-L activity, times higher than that for the other three activities ([3]; ChT-L vs BrAAP, SNAAP, PGPH): ~20 times | Ki [3]: 40.5 ± 8.8 µM | IC50 ([4]; substrate concentration of 0.64 mM, absence of SDS, read-out: IC50, PGPH activity): 3.1 µM | inhibition at 50 µM ([5]; β-casein 160 μg/ml, no Mg2+): 94% | inhibition at 50 µM ([5]; β-casein 1000 μg/ml, 20 mM Mg2+): 89% | inhibition at 50 µM ([6]; all histone H3 concentrations, read-out: inhibition of the rate of histone H3 degradation): ~80% | inhibition at 50 µM ([6]; histone H3 185 μg/ml, MPC 2.5 μg, read-out: Inhibition, histone H3 degradation): 77% | inhibition at 50 µM ([6]; histone H3 370 μg/ml, MPC 2.5 μg, read-out: Inhibition, histone H3 degradation): 76% | inhibition at 50 µM ([6]; histone H3 740 μg/ml, MPC 2.5 μg, read-out: Inhibition, histone H3 degradation): 86%

CC(C)[C@@H](C=O)NC(=O)[C@H](Cc1ccccc1)NC(=O)[C@@H]1CCCN1C(=O)CNC(=O)OCc1ccccc1 [Cbz-Gly-Pro-Phe-Val-CHO] (Cbz-GPFV-aldehyde)
Ki [1, 10]: 47.3 ± 4.9 µM | Ki [2]: 24 ± 0.84 µM | Ki [3]: 331 ± 22 µM | IC50 [4, 11]: 62 µM

O=c1oc(Cl)c(Cl)c2ccccc12 [DCI, 3,4-dichloroisocoumarin]
activation of the BrAAP component ([7]; treatment of the MPC with DCI (10 μM)): 10 fold | inactivation of the PGPH activity ([8]; DCI (10 μM)): almost complete inactivation

CC(C)C[C@@H](C=O)NC(=O)[C@H](C)NC(=O)[C@@H]1CCCN1C(=O)CNC(=O)OCc1ccccc1 [Cbz-Gly-Pro-Ala-Leu-CHO] (Cbz-GPAL-aldehyde)
Ki [1, 10]: 13.9 ± 1.9 µM | Ki [2]: 17.2 ± 3.4 µM | Ki [3]: 471 ± 48 µM | IC50 [4, 11]: 60 µM | β-casein substrate remaining intact ([5]; 200 μM inhibitor, 30 min incubation, β-casein 200 μg, 20 mM Mg2+, MPC 30 μg): ~90%

Cbz-Gly-Pro-Ala-Leu-Ala-pAB
Km [9]: 6.7 mM | kcat [9]: 5.2 s⁻¹ | kcat /Km [9]: 780 M⁻¹ s⁻¹

C[C@H](NC(=O)[C@@H]1CCCN1C(=O)CNC(=O)OCc1ccccc1)C(=O)N[C@H](C=O)Cc1ccccc1 [Cbz-Gly-Pro-Ala-Phe-CHO] (Cbz-GPAF-aldehyde)
Ki [1, 10]: 305 ± 77 µM | Ki [2]: 406 ± 54 µM | Ki [3]: 1850 ± 750 µM

Cbz-Gly-Pro-Ala-Leu-Gly-p-aminobenzoate [Cbz-Gly-Pro-Ala-Leu-Gly-pAB]
Km [9]: 5.2 mM | kcat [9]: 3.75 s⁻¹ | kcat /Km [9]: 720 M⁻¹ s⁻¹

CCCCCCCCCCCC(=O)O [lauric acid]
increase of the PGPH activity [8]: ~10 fold

CC(C)C[C@@H](C=O)NC(=O)[C@H](C)NC(=O)CNC(=O)[C@@H]1CCCN1C(=O)OCc1ccccc1 [Cbz-Pro-Gly-Ala-Leu-CHO] (Cbz-PGAL-aldehyde)
Ki [1, 10]: 104 ± 2.3 µM | Ki [2]: 36.7 ± 3.6 µM | Ki [3]: 16.4 ± 2.7 µM

CCCCCCCCCCCCOS(=O)(=O)[O-].[Na+] [SDS, sodium dodecyl sulfate]
activation of the BrAAP component ([7]; treatment of the MPC with SDS, synthetic substrates): ~50 fold | increase of the PGPH activity [8]: ~10 fold
